Here are results for five compounds from paper PMC12332157, “A preclinical study on the influence of linkers in [^68Ga]Ga-NOTA-X-RM26 radiotracers for PET imaging of GRPR expression” (EJNMMI Research, 2025).

Each structure is given as a SMILES string. Like-named read-outs stand apart in the source and are kept apart here. Starred links: 1 amine or outer side, 2 acyl side, 3 side chain; linkers in the order of their positions; H or OH if unused. Non-standard residues stand in square brackets, D forms with d. Residues, ends and D or L forms follow the SMILES beside them. *: point of attachment. NOTA = O=C(O)CN1CCN(CC(=O)O)CCN(CC(=O)*)CC1; Sta = CC(C)C[C@H](N)[C@@H](O)CC(=O)O; X2 = O=C(COc1cccc(CN[*:1])c1)[*:2]; X1 = O=C(Cc1ccccc1CCN[*:1])[*:2]; X3 = O=C(COc1ccccc1CN[*:1])[*:2]

The target in data set [1] is T1, GRPR (Homo sapiens, UniProt P30550).
T1 construct: endogenous in cells; host or cells: PC-3 human prostate cancer cells
The data set can be described thus: Competitive binding against [125I]I-Tyr4-bombesin on PC-3 cells. Particulars: natGa-loaded peptide vs [125I]I-Tyr4-bombesin, 5 h at 4 °C. As for the experimental part:
In short, 30 nmol of the respective peptide was mixed with 10 µL of 9 mM GaCl3, 150 µL of 0.1 M HCl, and 250 µL of 1 M sodium acetate (pH 4.5). The mixture was then incubated at 70 °C for 60 min.
PC-3 cells were seeded in 12-well plates at 10^5 cells per well density and incubated overnight. Then, the media was aspirated, and cells were washed with 500 µL of cold PBS buffer, containing 1% w/v bovine serum albumin (PBS/BSA buffer). Then the cells were treated with 350 µL of cold PBS/BSA buffer, 50 µL of the metalated ligand at different concentrations (from 0 to 1000 nM), and 100 µL of [^125I]I-Tyr^4-bombesin (PerkinElmer, Waltham, MA, USA) in PBS/1% BSA buffer, at 24.6 fmol/well concentration. Cells were incubated for 5 h at 4°C to reach equilibrium of binding. After that, the supernatant was removed, cells were washed with cold PBS buffer containing 1% BSA, and collected using 1 mL of 1 M NaOH heated to 37 °C. The radioactivity was measured by a Wizard 2480 gamma counter (PerkinElmer, Waltham, MA, USA). The experiments were performed in triplicates (n = 3) and the data were fitted to the curves with a nonlinear regression model in GraphPad Prism 7.

Data set [2] has as its system PC-3 xenograft bearing BALB/c nu/nu mice. The data set can be described thus: Biodistribution in BALB/c nu/nu mice bearing PC-3 xenografts. The class given is in vivo. As to conditions: 2 h p.i. As for the experimental part: (§1) Female BALB/c nu/nu mice of 18–22 g weight were used in the study. All procedures with animals were conducted in accordance with the EU Directive 2010/63/EU for animal experiments and Swedish national legislation concerning the protection of laboratory animals. The experiments were approved by the ethics committee for animal research in Uppsala (Sweden) with permit number 5.8.18–00473/2021. Animals were housed in individually ventilated cages, under a 12-h light/dark cycle with free access to food and water.
(§2) For tumor inoculation, 8·10^6 PC-3 cells in 100 µL PBS were injected subcutaneously into the right hind leg of mice. Mouse weight and tumor size were measured every 2–3 days, and tumor volume was estimated by ellipsoid approximation. A predefined humane endpoint of the experiment was either a 15% weight loss or a tumor volume of 1000 mm^3, neither of which was reached.
(§3) Four weeks after tumor cell implantation, mice were randomized and divided into 6 groups (4 animals / group): 3 of them received treatment with ^68Ga-radiolabeled peptides, while the other 3 received the same peptides in addition to 5 nmol of non-labeled NOTA-PEG2-RM26 peptide for GRPR-blocking. Peptides were injected intravenously via the tail veins at a dose of 50 pmol (700 kBq radioactivity dose).
(§4) At 2 h post injection, mice were sacrificed by overdose of Ketamine/Xylazine anesthesia, and blood was collected by heart puncture. Then, liver, spleen, lungs, pancreas, kidneys, small intestine, stomach, tail, femur bones, tumor and muscle from the opposite legs were collected, weighed, and radioactivity was measured using a Wizard 2480 gamma counter. Data are presented as percentages of injected activity per gram of tissue (%IA/g).

Data set [3] in a line: Octanol-water distribution coefficient (LogD). Particulars: n-octanol/PBS; n = 3; mean ± sd. The data set is classed as physicochemical. The procedure: Octanol-water distribution coefficient (LogD) was determined by adding 10 pmol of radiopeptide to an Eppendorf tube containing 500 µL of phosphate-buffered saline (PBS) and 500 µL of n-octanol. Each tube was vortexed for 2 min and centrifuged at 6000 g for 5 min. Three 100 µL fractions were collected from each phase, and their radioactivity was measured.

Data set [4] can be described thus: Complex stability of 68Ga-labeled peptides in PBS or EDTA solution in PBS (iTLC). The data set is classed as physicochemical. As to conditions: n = 3, mean ± sd.
A short description of data set [5]: Biodistribution in BALB/c nu/nu mice bearing PC-3 xenografts. The data set is classed as in vivo. As to conditions: female, BALB/c nu/nu, mouse, iv, total radioactivity. The procedure: as §1, §2, §3, §4

T1 sequence (P30550 whole entry): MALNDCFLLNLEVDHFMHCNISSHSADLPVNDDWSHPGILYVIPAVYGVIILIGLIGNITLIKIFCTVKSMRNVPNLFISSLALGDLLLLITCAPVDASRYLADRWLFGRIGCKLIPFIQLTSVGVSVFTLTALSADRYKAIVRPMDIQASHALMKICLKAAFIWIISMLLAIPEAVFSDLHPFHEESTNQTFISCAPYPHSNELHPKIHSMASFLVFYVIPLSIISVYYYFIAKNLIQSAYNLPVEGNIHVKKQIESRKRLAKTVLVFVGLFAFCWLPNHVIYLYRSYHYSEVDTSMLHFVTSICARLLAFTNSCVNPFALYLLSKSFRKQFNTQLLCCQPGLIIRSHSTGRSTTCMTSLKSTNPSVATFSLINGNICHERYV

One may read the IC50 as the concentration at which inhibition is half-maximal. The compound `CC(=O)N[C@@H](CCCCNC(=O)CN1CCN(CC(=O)O)CCN(CC(=O)O)CC1)C(=O)NCCc1ccccc1CC(=O)N[C@H](Cc1ccccc1)C(=O)N[C@@H](CCC(N)=O)C(=O)N[C@@H](Cc1c[nH]c2ccccc12)C(=O)N[C@@H](C)C(=O)N[C@H](C(=O)NCC(=O)N[C@@H](Cc1c[nH]cn1)C(=O)N[C@@H](CC(C)C)[C@@H](O)CC(=O)N[C@@H](CC(C)C)C(N)=O)C(C)C` [^natGa-NOTA-oET-RM26, metal not drawn] (Ac-K(NOTA)[X1][dF]QWAVGH[Sta]L-NH2) yielded an IC50 in data set [1] of 3.4 nM.

`CC(=O)N[C@@H](CCCCNC(=O)CN1CCN(CC(=O)O)CCN(CC(=O)O)CC1)C(=O)NCc1ccccc1OCC(=O)N[C@H](Cc1ccccc1)C(=O)N[C@@H](CCC(N)=O)C(=O)N[C@@H](Cc1c[nH]c2ccccc12)C(=O)N[C@@H](C)C(=O)N[C@H](C(=O)NCC(=O)N[C@@H](Cc1c[nH]cn1)C(=O)N[C@@H](CC(C)C)[C@@H](O)CC(=O)N[C@@H](CC(C)C)C(N)=O)C(C)C` [^natGa-NOTA-oMA-RM26, metal not drawn] (Ac-K(NOTA)[X3][dF]QWAVGH[Sta]L-NH2) displayed an IC50 in data set [1] of 1.3 nM.

Regarding `CC(=O)N[C@@H](CCCCNC(=O)CN1CCN(CC(=O)O)CCN(CC(=O)O)CC1)C(=O)NCCc1ccccc1CC(=O)N[C@H](Cc1ccccc1)C(=O)N[C@@H](CCC(N)=O)C(=O)N[C@@H](Cc1c[nH]c2ccccc12)C(=O)N[C@@H](C)C(=O)N[C@H](C(=O)NCC(=O)N[C@@H](Cc1c[nH]cn1)C(=O)N[C@@H](CC(C)C)[C@@H](O)CC(=O)N[C@@H](CC(C)C)C(N)=O)C(C)C` [NOTA-oET-RM26] (Ac-K(NOTA)[X1][dF]QWAVGH[Sta]L-NH2), in data set [2], the “peptide accumulation in the liver and lungs” value is given as “lowest activity uptake”; the tumor-to-liver ratio entry is recorded as “best tumor-to-liver ratio”.

In general, logD refers to the decadic logarithm of the distribution of all forms, ionised or not, between an organic phase and buffer at a given pH. Read a low logD as a more hydrophilic compound. A word on the fraction remaining: it is the share of the starting amount still present when the sample was taken. Read a low fraction remaining as more turnover. `CC(=O)N[C@@H](CCCCNC(=O)CN1CCN(CC(=O)O)CCN(CC(=O)O)CC1)C(=O)NCCc1ccccc1CC(=O)N[C@H](Cc1ccccc1)C(=O)N[C@@H](CCC(N)=O)C(=O)N[C@@H](Cc1c[nH]c2ccccc12)C(=O)N[C@@H](C)C(=O)N[C@H](C(=O)NCC(=O)N[C@@H](Cc1c[nH]cn1)C(=O)N[C@@H](CC(C)C)[C@@H](O)CC(=O)N[C@@H](CC(C)C)C(N)=O)C(C)C` [[^68Ga]Ga-NOTA-oET-RM26, metal not drawn] (Ac-K(NOTA)[X1][dF]QWAVGH[Sta]L-NH2) came in with a logD in data set [3] of -0.97 ± 0.01. This compound had a fraction remaining at 1 h, 1 µM in data set [4] (PBS buffer, pH 7.4, incubation at 37 °C for 1 h in PBS) of 95 ± 2.9%. In data set [4] (incubation at 37 °C for 1 h in PBS with 1000-fold molar excess of EDTA, in % (unit assumed)), the “Stability in PBS with EDTA” value was found to be 92.6 ± 4.7. For the same compound, the tissue uptake at 2 h in data set [5] (blood, 50 pmol, 2 h p.i., i.v., read-out: Radionuclide concentration, Blood) is 0.54 ± 0.01 %ID/g; in data set [5] (blood, Blockade (co-injection of NOTA-PEG2-RM26), 2 h, read-out: Radionuclide concentration, Blood), 0.31 ± 0.04 %ID/g; in data set [5] (bone, 50 pmol, 2 h p.i., i.v., read-out: Radionuclide concentration, Bone), 0.44 ± 0.04 %ID/g; in data set [5] (bone, Blockade (co-injection of NOTA-PEG2-RM26), 2 h, read-out: Radionuclide concentration, Bone) it was 0.33 ± 0.07 %ID/g; in data set [5] (kidneys, 50 pmol, 2 h p.i., i.v., read-out: Radionuclide concentration, Kidneys) it was 5.9 ± 0.6 %ID/g; in data set [5] (kidneys, Blockade (co-injection of NOTA-PEG2-RM26), 2 h, read-out: Radionuclide concentration, Kidneys), 3.3 ± 2.3 %ID/g. Moreover, the tissue uptake at 2 h was 1.9 ± 0.2 %ID/g in data set [5] (liver, 50 pmol, 2 h p.i., i.v., read-out: Radionuclide concentration, Liver); 1.3 ± 0.1 %ID/g in data set [5] (liver, Blockade (co-injection of NOTA-PEG2-RM26), 2 h, read-out: Radionuclide concentration, Liver); 0.45 ± 0.27 %ID/g in data set [5] (lungs, 50 pmol, 2 h p.i., i.v., read-out: Radionuclide concentration, Lungs); 0.37 ± 0.02 %ID/g in data set [5] (lungs, Blockade (co-injection of NOTA-PEG2-RM26), 2 h, read-out: Radionuclide concentration, Lungs); 0.15 ± 0.01 %ID/g in data set [5] (muscle, 50 pmol, 2 h p.i., i.v., read-out: Radionuclide concentration, Muscle); 0.15 ± 0.13 %ID/g in data set [5] (muscle, Blockade (co-injection of NOTA-PEG2-RM26), 2 h, read-out: Radionuclide concentration, Muscle). Further, the tissue uptake at 2 h in data set [5] (pancreas, 50 pmol, 2 h p.i., i.v., read-out: Radionuclide concentration, Pancreas) was found to be 11.7 ± 2.4 %ID/g; in data set [5] (pancreas, Blockade (co-injection of NOTA-PEG2-RM26), 2 h, read-out: Radionuclide concentration, Pancreas) it was 1.2 ± 0.2 %ID/g; in data set [5] (small intestine, 50 pmol, 2 h p.i., i.v., read-out: Radionuclide concentration, Small Intestines), 2.4 ± 0.4 %ID/g; in data set [5] (small intestine, Blockade (co-injection of NOTA-PEG2-RM26), 2 h, read-out: Radionuclide concentration, Small Intestines) it was 0.33 ± 0.24 %ID/g; in data set [5] (spleen, 50 pmol, 2 h p.i., i.v., read-out: Radionuclide concentration, Spleen), 0.46 ± 0.06 %ID/g; in data set [5] (spleen, Blockade (co-injection of NOTA-PEG2-RM26), 2 h, read-out: Radionuclide concentration, Spleen) it was 0.28 ± 0.07 %ID/g. The tissue uptake at 2 h was determined as 2.6 ± 0.6 %ID/g in data set [5] (stomach, 50 pmol, 2 h p.i., i.v., read-out: Radionuclide concentration, Stomach); 0.55 ± 0.19 %ID/g in data set [5] (stomach, Blockade (co-injection of NOTA-PEG2-RM26), 2 h, read-out: Radionuclide concentration, Stomach); 11.2 ± 3.4 %ID/g in data set [5] (tumor (PC-3 xenograft), 50 pmol, 2 h p.i., i.v., PC-3 xenograft, read-out: Radionuclide concentration, Tumor); 1.3 ± 0.2 %ID/g in data set [5] (tumor (PC-3 xenograft), Blockade (co-injection of NOTA-PEG2-RM26), 2 h, read-out: Radionuclide concentration, Tumor). Further, the tissue uptake dose at 2 h in data set [5] (carcass, 50 pmol, 2 h p.i., i.v., read-out: Radionuclide quantity, Carcass) was determined as 4.1 ± 1.1 %ID; in data set [5] (carcass, Blockade (co-injection of NOTA-PEG2-RM26), 2 h, read-out: Radionuclide quantity, Carcass) it was 3.1 ± 1.8 %ID; in data set [5] (gastrointestinal tract, 50 pmol, 2 h p.i., i.v., read-out: Radionuclide quantity, Gastrointestinal tract), 5.9 ± 0.5 %ID; in data set [5] (gastrointestinal tract, Blockade (co-injection of NOTA-PEG2-RM26), 2 h, read-out: Radionuclide quantity, Gastrointestinal tract) it was 3.5 ± 0.7 %ID; in data set [5] (total (sum of the measured activities), 50 pmol, 2 h p.i., i.v., sum of the measured activities, read-out: Radionuclide quantity, Total), 16.3 ± 1.6 %ID; in data set [5] (total, Blockade (co-injection of NOTA-PEG2-RM26), 2 h, read-out: Radionuclide quantity, Total), 8.5 ± 3 %ID.

`CC(=O)N[C@@H](CCCCNC(=O)CN1CCN(CC(=O)O)CCN(CC(=O)O)CC1)C(=O)NCc1cccc(OCC(=O)N[C@H](Cc2ccccc2)C(=O)N[C@@H](CCC(N)=O)C(=O)N[C@@H](Cc2c[nH]c3ccccc23)C(=O)N[C@@H](C)C(=O)N[C@H](C(=O)NCC(=O)N[C@@H](Cc2c[nH]cn2)C(=O)N[C@@H](CC(C)C)[C@@H](O)CC(=O)N[C@@H](CC(C)C)C(N)=O)C(C)C)c1` [^natGa-NOTA-mMA-RM26, metal not drawn] (Ac-K(NOTA)[X2][dF]QWAVGH[Sta]L-NH2): in data set [1], the IC50 turned out to be 0.27 nM.
